Measurements from ChEMBL document CHEMBL1137068, “Design, synthesis and evaluation of bicyclic benzamides as novel 5-HT1F receptor agonists” (Bioorg Med Chem Lett, 2004).

molecular target: T1, 5-hydroxytryptamine receptor 1D (Homo sapiens, UniProt P28221); assay: In vitro binding affinity for human 5-hydroxytryptamine 1D receptor; conditions: not given
T1 sequence (P28221 whole entry): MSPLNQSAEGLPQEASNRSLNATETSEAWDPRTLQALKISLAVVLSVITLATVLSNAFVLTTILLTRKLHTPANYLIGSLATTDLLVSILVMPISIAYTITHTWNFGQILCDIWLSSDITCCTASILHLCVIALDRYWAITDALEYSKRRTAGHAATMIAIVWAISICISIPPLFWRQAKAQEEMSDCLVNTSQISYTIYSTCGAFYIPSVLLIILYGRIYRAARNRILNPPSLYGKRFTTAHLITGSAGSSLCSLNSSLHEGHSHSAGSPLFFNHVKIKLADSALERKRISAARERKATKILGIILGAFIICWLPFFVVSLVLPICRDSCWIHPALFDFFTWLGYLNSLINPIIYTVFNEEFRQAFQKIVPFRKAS

| Ki [nM] | Compound |
| --- | --- |
| 2300 | CN1CCC(N2CCOc3ccc(NC(=O)c4ccc(F)cc4)cc32)CC1 |
| 3100 | CN1CCC(c2n[nH]c3ccc(NC(=O)c4ccc(F)cc4)cc23)CC1 |
| 210 | CN1CCC(N2CCc3ccc(NC(=O)c4ccc(F)cc4)cc32)CC1 |
| 2300 | CN1CCC(C2CNc3ccc(NC(=O)c4ccc(F)cc4)cc32)CC1 (stereo in doubt; 3) [listing 1 of 2 here] |
| 140 | CN1CCC(n2ccc3ccc(NC(=O)c4ccc(F)cc4)cc32)CC1 |

molecular target: T2, 5-hydroxytryptamine receptor 1F (Homo sapiens, UniProt P30939); assay: In vitro binding affinity for human 5-hydroxytryptamine 1F receptor; conditions: not given
T2 sequence (P30939 whole entry): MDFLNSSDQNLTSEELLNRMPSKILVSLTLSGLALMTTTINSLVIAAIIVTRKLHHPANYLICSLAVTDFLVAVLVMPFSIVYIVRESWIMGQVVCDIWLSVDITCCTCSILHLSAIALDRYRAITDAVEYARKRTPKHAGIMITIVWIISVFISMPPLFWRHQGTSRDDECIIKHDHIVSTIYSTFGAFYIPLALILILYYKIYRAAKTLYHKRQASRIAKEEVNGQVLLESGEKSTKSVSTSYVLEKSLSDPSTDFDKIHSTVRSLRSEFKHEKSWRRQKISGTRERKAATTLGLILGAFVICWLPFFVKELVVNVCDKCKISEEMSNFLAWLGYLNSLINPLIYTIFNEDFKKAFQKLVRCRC

| Ki [nM] | Compound |
| --- | --- |
| 17 | CN1CCC(c2noc3ccc(NC(=O)c4ccc(F)cc4)cc23)CC1 |
| 520 | CN1CCC(N2CCOc3ccc(NC(=O)c4ccc(F)cc4)cc32)CC1 |
| 3.9 | CN1CCC(c2n[nH]c3ccc(NC(=O)c4ccc(F)cc4)cc23)CC1 |
| 4.8 | CN1CCC(N2CCc3ccc(NC(=O)c4ccc(F)cc4)cc32)CC1 |
| 9 | CN1CCC(C2CNc3ccc(NC(=O)c4ccc(F)cc4)cc32)CC1 (stereo in doubt; 3) [listing 1 of 2 here] |
| 9.6 | CN1CCC(C2CNc3ccc(NC(=O)c4ccc(F)cc4)cc32)CC1 (stereo in doubt; form 2) [listing 1 of 2 here] |
| 2.2 | CN1CCC(n2ccc3ccc(NC(=O)c4ccc(F)cc4)cc32)CC1 |
| 3.6 | CN1CCC(c2noc3ccc(NC(=O)c4ccc(F)cc4Cl)cc23)CC1 |
| 8.6 | CN1CCC(C2CNc3ccc(NC(=O)c4ccc(F)cc4)cc32)CC1 (stereo in doubt; form 1) [listing 1 of 2 here] |
| 4.1 | CN1CCC(n2ncc3ccc(NC(=O)c4ccc(F)cc4)cc32)CC1 |
| 17 | CN1CCC(N2CNc3ccc(NC(=O)c4c(F)cc(F)cc4F)cc32)CC1 |
| 13 | CN1CCC(N2CNc3ccc(NC(=O)c4ccc(F)cc4Cl)cc32)CC1 |
| 12 | CN1CCC(c2noc3ccc(NC(=O)c4ccc(F)cc4F)cc23)CC1 |

molecular target: T2, 5-hydroxytryptamine receptor 1F; assay: Stimulation of [35S]GTP-gamma-S, binding to cloned human 5-hydroxytryptamine 1F receptor expressed in Mouse LM(tk-) cells; type: functional, cell-based; conditions: not given

| EC50 [nM] | Compound |
| --- | --- |
| 140 | CN1CCC(c2noc3ccc(NC(=O)c4ccc(F)cc4Cl)cc23)CC1 |
| 50 | CN1CCC(N2CNc3ccc(NC(=O)c4c(F)cc(F)cc4F)cc32)CC1 |
| 63 | CN1CCC(N2CNc3ccc(NC(=O)c4ccc(F)cc4Cl)cc32)CC1 |
| 470 | CN1CCC(c2noc3ccc(NC(=O)c4ccc(F)cc4F)cc23)CC1 |

molecular target: T3, 5-hydroxytryptamine receptor 1B (Homo sapiens, UniProt P28222); assay: Inhibitory activity against human 5-hydroxytryptamine 1B receptor; conditions: concentration not given here
T3 sequence (P28222 whole entry): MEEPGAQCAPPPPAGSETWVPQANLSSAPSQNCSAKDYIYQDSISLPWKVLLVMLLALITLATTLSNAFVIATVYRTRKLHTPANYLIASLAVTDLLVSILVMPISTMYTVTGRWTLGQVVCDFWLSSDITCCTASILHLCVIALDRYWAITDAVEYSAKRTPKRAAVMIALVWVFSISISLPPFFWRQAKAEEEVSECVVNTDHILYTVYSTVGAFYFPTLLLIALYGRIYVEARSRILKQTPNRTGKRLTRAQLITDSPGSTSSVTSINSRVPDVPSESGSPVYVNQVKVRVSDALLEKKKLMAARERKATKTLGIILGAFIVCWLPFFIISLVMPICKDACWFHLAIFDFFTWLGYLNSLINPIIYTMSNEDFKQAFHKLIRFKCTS

| inhibition [%] | Compound |
| --- | --- |
| < 50 | CN1CCC(N2CCOc3ccc(NC(=O)c4ccc(F)cc4)cc32)CC1 |
| < 50 | CN1CCC(C2CNc3ccc(NC(=O)c4ccc(F)cc4)cc32)CC1 (stereo in doubt; form 2) [listing 2 of 2 here] |
| < 50 | CN1CCC(C2CNc3ccc(NC(=O)c4ccc(F)cc4)cc32)CC1 (stereo in doubt; form 1) [listing 2 of 2 here] |
| < 50 | CN1CCC(C2CNc3ccc(NC(=O)c4ccc(F)cc4)cc32)CC1 (stereo in doubt; 3) [listing 2 of 2 here] |

molecular target: T1, 5-hydroxytryptamine receptor 1D; assay: Inhibitory activity against human 5-hydroxytryptamine 1D receptor; conditions: concentration not given here

| inhibition [%] | Compound |
| --- | --- |
| < 50 | CN1CCC(n2ncc3ccc(NC(=O)c4ccc(F)cc4)cc32)CC1 |

molecular target: T1, 5-hydroxytryptamine receptor 1D; assay: Inhibitory activity against 5-hydroxytryptamine 1D receptor at 10 uM; conditions: not given

| inhibition [%] | Compound |
| --- | --- |
| < 50 | CN1CCC(c2noc3ccc(NC(=O)c4ccc(F)cc4)cc23)CC1 |

molecular target: T4, 5-hydroxytryptamine receptor 1F (Homo sapiens) (UniProt P30939); assay: Maximum stimulation of [35S]GTP-gamma-S, binding to human 5-hydroxytryptamine 1F receptor expressed in Mouse LM(tk-) cells relative to maximum effect of 5-HT; type: functional, cell-based; conditions: not given
T4 sequence (whole entry): T2 sequence (P30939 whole entry)

| Emax [%] | Compound |
| --- | --- |
| 71 | CN1CCC(c2noc3ccc(NC(=O)c4ccc(F)cc4Cl)cc23)CC1 |
| 95 | CN1CCC(N2CNc3ccc(NC(=O)c4c(F)cc(F)cc4F)cc32)CC1 |
| 98 | CN1CCC(N2CNc3ccc(NC(=O)c4ccc(F)cc4Cl)cc32)CC1 |
| 73 | CN1CCC(c2noc3ccc(NC(=O)c4ccc(F)cc4F)cc23)CC1 |

species: Homo sapiens; assay: Ratio of binding affinity for 5-hydroxytryptamine 1D receptor to that of 5-hydroxytryptamine 1F receptor; conditions: not given

| Selectivity ratio | Compound |
| --- | --- |
| 120 | CN1CCC(N2CNc3ccc(NC(=O)c4c(F)cc(F)cc4F)cc32)CC1 |
| 80 | CN1CCC(N2CNc3ccc(NC(=O)c4ccc(F)cc4Cl)cc32)CC1 |
| 250 | CN1CCC(C2CNc3ccc(NC(=O)c4ccc(F)cc4)cc32)CC1 (stereo in doubt; 3) [listing 2 of 2 here] |

species: Homo sapiens; assay: Ratio of binding affinity for 5-hydroxytryptamine 1A receptor to that of 5-hydroxytryptamine 1F receptor; conditions: not given

| Selectivity ratio | Compound |
| --- | --- |
| 10 | CN1CCC(c2noc3ccc(NC(=O)c4ccc(F)cc4)cc23)CC1 |
| 30 | CN1CCC(c2noc3ccc(NC(=O)c4ccc(F)cc4Cl)cc23)CC1 |
| 50 | CN1CCC(N2CNc3ccc(NC(=O)c4c(F)cc(F)cc4F)cc32)CC1 |
| 70 | CN1CCC(N2CNc3ccc(NC(=O)c4ccc(F)cc4Cl)cc32)CC1 |
| 10 | CN1CCC(c2noc3ccc(NC(=O)c4ccc(F)cc4F)cc23)CC1 |
| 30 | CN1CCC(C2CNc3ccc(NC(=O)c4ccc(F)cc4)cc32)CC1 (stereo in doubt; 3) [listing 2 of 2 here] |

molecular target: T3, 5-hydroxytryptamine receptor 1B; assay: In vitro binding affinity for human 5-hydroxytryptamine 1B receptor; conditions: not given

| Ki [nM] | Compound |
| --- | --- |
| 2300 | CN1CCC(c2n[nH]c3ccc(NC(=O)c4ccc(F)cc4)cc23)CC1 |
| 440 | CN1CCC(N2CCc3ccc(NC(=O)c4ccc(F)cc4)cc32)CC1 |
| 260 | CN1CCC(n2ccc3ccc(NC(=O)c4ccc(F)cc4)cc32)CC1 |
| 2400 | CN1CCC(n2ncc3ccc(NC(=O)c4ccc(F)cc4)cc32)CC1 |

molecular target: T3, 5-hydroxytryptamine receptor 1B; assay: Inhibitory activity against 5-hydroxytryptamine 1B receptor at 10 uM; conditions: not given

| inhibition [%] | Compound |
| --- | --- |
| < 50 | CN1CCC(c2noc3ccc(NC(=O)c4ccc(F)cc4)cc23)CC1 |

molecular target: T5, 5-hydroxytryptamine receptor 1A (Homo sapiens, UniProt P08908); assay: In vitro binding affinity for human 5-hydroxytryptamine 1A receptor; conditions: not given
T5 sequence (P08908 whole entry): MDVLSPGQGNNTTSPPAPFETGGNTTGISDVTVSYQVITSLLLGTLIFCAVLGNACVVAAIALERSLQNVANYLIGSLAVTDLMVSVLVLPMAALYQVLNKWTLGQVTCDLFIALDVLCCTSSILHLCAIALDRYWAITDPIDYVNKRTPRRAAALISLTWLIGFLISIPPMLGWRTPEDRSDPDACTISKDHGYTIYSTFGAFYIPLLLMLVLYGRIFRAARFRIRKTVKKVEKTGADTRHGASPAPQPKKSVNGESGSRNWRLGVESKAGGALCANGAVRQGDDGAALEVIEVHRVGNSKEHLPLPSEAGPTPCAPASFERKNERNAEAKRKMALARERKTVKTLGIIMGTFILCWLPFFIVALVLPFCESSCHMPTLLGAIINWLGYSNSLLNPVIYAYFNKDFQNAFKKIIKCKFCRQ

| Ki [nM] | Compound |
| --- | --- |
| 160 | CN1CCC(c2noc3ccc(NC(=O)c4ccc(F)cc4)cc23)CC1 |
| 860 | CN1CCC(N2CCOc3ccc(NC(=O)c4ccc(F)cc4)cc32)CC1 |
| 870 | CN1CCC(c2n[nH]c3ccc(NC(=O)c4ccc(F)cc4)cc23)CC1 |
| 12 | CN1CCC(N2CCc3ccc(NC(=O)c4ccc(F)cc4)cc32)CC1 |
| 240 | CN1CCC(C2CNc3ccc(NC(=O)c4ccc(F)cc4)cc32)CC1 (stereo in doubt; 3) [listing 1 of 2 here] |
| 250 | CN1CCC(C2CNc3ccc(NC(=O)c4ccc(F)cc4)cc32)CC1 (stereo in doubt; form 2) [listing 1 of 2 here] |
| 11 | CN1CCC(n2ccc3ccc(NC(=O)c4ccc(F)cc4)cc32)CC1 |
| 250 | CN1CCC(C2CNc3ccc(NC(=O)c4ccc(F)cc4)cc32)CC1 (stereo in doubt; form 1) [listing 1 of 2 here] |
| 310 | CN1CCC(n2ncc3ccc(NC(=O)c4ccc(F)cc4)cc32)CC1 |
